Data on 1 molecule can be found in US8143293B2, “Kinase inhibitors useful for the treatment of myleoprolific diseases and other proliferative diseases” (Deciphera Pharmaceuticals, LLC, priority 2007, dated 2012).

pIC50: −log10 of the molar value.

The target of assay [1] is T1, BaF3 cells transfected with wild type p210 BCR-Abl (Homo sapiens, UniProt P00519).
T1 construct: fused on or other part: P11274 (Breakpoint cluster region protein)
The experiment in a line: Ba/F3 p210 whole cell proliferation assay. In kind it is cell-based. To be noted: 72 hours, Cell Titer Blue; read-out: Whole Cell Antiproliferation IC50, Ba/F3 p210 whole cell proliferation assay. How it is done:
(§1) BaF3 cells (parental or transfected with the following: wild type p210 BCR-Abl and T315I p210 BCR-Abl was obtained from Professor Richard Van Etten (New England Medical Center, Boston, Mass.). Briefly, cells were grown in RPMI 1640 supplemented with 10% characterized fetal bovine serum (HyClone, Logan, Utah) at 37 degrees Celsius, 5% CO2, 95% humidity. Cells were allowed to expand until reaching 80% saturation at which point they were subcultured or harvested for assay use.
(§2) A serial dilution of test compound was dispensed into a 96 well black clear bottom plate (Corning, Corning, N.Y.). For each cell line, three thousand cells were added per well in complete growth medium. Plates were incubated for 72 hours at 37 degrees Celsius, 5% CO2, 95% humidity. At the end of the incubation period Cell Titer Blue (Promega, Madison, Wis.) was added to each well and an additional 4.5 hour incubation at 37 degrees Celsius, 5% CO2, 95% humidity was performed. Plates were then read on a BMG Fluostar Optima (BMG, Durham, N.C.) using an excitation of 544 nm and an emission of 612 nm. Data was analyzed using Prism software (Graphpad, San Diego, Calif.) to calculate IC50's.
(In general: The colour change of resazurin is a common sign of viable cells or microbes.)

The target in assay [2] is T2, BaF3 cells transfected with T315I p210 BCR-Abl (Homo sapiens, UniProt P00519, T315I, cells depend on it).
T2 construct: fused on or other part: P11274 (Breakpoint cluster region protein)
The experiment in a line: Ba/F3 p210 T315I whole cell proliferation assay. In kind it is cell-based. To be noted: 72 hours, Cell Titer Blue; read-out: Whole Cell Antiproliferation IC50, Ba/F3 p210 T315I whole cell proliferation assay. Here is the method: as §1, §2

The target in assay [3] is T3, C-Met kinase (SEQ ID NO:10) (Homo sapiens, UniProt P08581).
T3 construct: 956-1390, from Invitrogen, catalogue #PV3143; His6 (N-terminal leader MSYYHHHHHH... with TEV and thrombin sites) (N); purchased Invitrogen PV3143
T3 sequence (P08581 with tags, fused parts or gaps): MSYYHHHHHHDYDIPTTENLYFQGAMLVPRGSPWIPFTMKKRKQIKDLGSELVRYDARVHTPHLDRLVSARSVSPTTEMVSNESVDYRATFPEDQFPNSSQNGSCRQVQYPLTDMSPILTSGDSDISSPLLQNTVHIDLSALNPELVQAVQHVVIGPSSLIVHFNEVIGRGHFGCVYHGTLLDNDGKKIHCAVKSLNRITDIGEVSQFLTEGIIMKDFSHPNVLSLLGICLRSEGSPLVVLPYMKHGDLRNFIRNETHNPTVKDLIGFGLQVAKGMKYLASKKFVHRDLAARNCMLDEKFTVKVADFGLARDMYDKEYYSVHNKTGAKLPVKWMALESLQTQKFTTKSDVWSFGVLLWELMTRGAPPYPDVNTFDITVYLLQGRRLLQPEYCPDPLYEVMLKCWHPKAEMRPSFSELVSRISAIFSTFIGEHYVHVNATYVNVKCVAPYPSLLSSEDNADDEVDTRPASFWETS
The experiment in a line: C-Met kinase (SEQ ID NO:10) assay, pyruvate kinase/lactate dehydrogenase coupled. Particulars: 0.5 h preincubation, ATP 100 μM; read-out: Biochemical IC50, c-Met Enzyme Assay. Here is the method: C-Met Kinase (SEQ ID NO:10) Assay
Activity of C-Met kinase (SEQ ID NO:10) was determined by following the production of ADP from the kinase reaction through coupling with the pyruvate kinase/lactate dehydrogenase system (e.g., Schindler, et al. Science (2000) 289, 1938-1942). In this assay, the oxidation of NADH (thus the decrease at A340 nm) was continuously monitored spectrophometrically. The reaction mixture (100 μl) contained C-Met (c-Met residues; 956-1390, from Invitrogen, catalogue #PV3143, […]), polyE4Y (1 mg/ml), MgCl2 (10 mM), pyruvate kinase (4 units), lactate dehydrogenase (0.7 units), phosphoenol pyruvate (1 mM), and NADH (0.28 mM) in 90 mM Tris buffer containing 0.25 mM DTT, 0.2% octyl-glucoside and 1% DMSO, pH 7.5. Test compounds were incubated with C-Met (SEQ ID NO:10) and other reaction reagents at 22° C. for 0.5 h before ATP (100 μM) was added to start the reaction. The absorption at 340 nm was monitored continuously for 2 hours at 30° C. on Polarstar Optima plate reader (BMG). The reaction rate was calculated using the 1.0 to 2.0 h time frame. Percent inhibition was obtained by comparison of reaction rate with that of a control (i.e. with no test compound). IC50 values were calculated from a series of percent inhibition values determined at a range of inhibitor concentrations using software routines as implemented in the GraphPad Prism software package.

The target in assay [4] is T4, c-Kit kinase (SEQ ID NO:9) (Homo sapiens, UniProt P10721).
T4 construct: contained c-Kit (cKIT residues T544-V976, from ProQinase, 5.4 nM); purchased ProQinase
T4 sequence (P10721 with tags, fused parts or gaps): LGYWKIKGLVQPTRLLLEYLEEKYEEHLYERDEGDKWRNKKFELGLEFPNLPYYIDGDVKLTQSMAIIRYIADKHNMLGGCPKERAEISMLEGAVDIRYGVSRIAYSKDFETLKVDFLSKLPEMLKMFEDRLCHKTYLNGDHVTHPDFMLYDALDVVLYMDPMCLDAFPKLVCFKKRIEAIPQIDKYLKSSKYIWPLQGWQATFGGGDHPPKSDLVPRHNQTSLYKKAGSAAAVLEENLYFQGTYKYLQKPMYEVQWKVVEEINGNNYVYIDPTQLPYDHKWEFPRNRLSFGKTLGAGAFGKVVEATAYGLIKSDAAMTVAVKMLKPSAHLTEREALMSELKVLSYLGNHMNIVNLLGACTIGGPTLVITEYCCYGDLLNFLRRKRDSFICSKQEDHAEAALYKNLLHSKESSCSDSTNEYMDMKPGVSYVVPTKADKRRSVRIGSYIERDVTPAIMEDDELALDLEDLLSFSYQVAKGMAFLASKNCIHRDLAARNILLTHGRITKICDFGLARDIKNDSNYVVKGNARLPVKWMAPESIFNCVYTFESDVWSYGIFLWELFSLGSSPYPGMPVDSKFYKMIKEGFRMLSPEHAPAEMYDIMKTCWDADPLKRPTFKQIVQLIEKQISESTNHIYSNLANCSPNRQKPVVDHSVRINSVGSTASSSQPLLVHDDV
The experiment in a line: C-Kit kinase (SEQ ID NO:9) assay, pyruvate kinase/lactate dehydrogenase coupled. To be noted: <2 min preincubation, ATP 200 μM; read-out: Biochemical IC50, c-Kit Enzyme Assay. How it is done:
C-Kit Kinase (SEQ ID NO:9) Assay
Activity of c-Kit kinase (SEQ ID NO:9) was determined by following the production of ADP from the kinase reaction through coupling with the pyruvate kinase/lactate dehydrogenase system (e.g., Schindler, et al. Science (2000) 289, 1938-1942). In this assay, the oxidation of NADH (thus the decrease at A340 nm) was continuously monitored spectrophometrically. The reaction mixture (100 μl) contained c-Kit (cKIT residues T544-V976, from ProQinase, 5.4 nM), polyE4Y (1 mg/ml), MgCl2 (10 mM), pyruvate kinase (4 units), lactate dehydrogenase (0.7 units), phosphoenol pyruvate (1 mM), and NADH (0.28 mM) in 90 mM Tris buffer containing 0.2% octyl-glucoside and 1% DMSO, pH 7.5. Test compounds were incubated with […] (SEQ ID NO:9) and other reaction reagents at 22° C. for <2 min before ATP (200 μM) was added to start the reaction. The absorption at 340 nm was monitored continuously for 0.5 hours at 30° C. on Polarstar Optima plate reader (BMG). The reaction rate was calculated using the 0 to 0.5 h time frame. Percent inhibition was obtained by comparison of reaction rate with that of a control (i.e. with no test compound). IC50 values were calculated from a series of percent inhibition values determined at a range of inhibitor concentrations using software routines as implemented in the GraphPad Prism software package.

For assay [5], the target named is T5, Abl kinase (SEQ ID NO: 1) (Homo sapiens, UniProt P00519).
T5 construct: purchased deCode Genetics
T5 sequence (P00519 with tags, fused parts or gaps): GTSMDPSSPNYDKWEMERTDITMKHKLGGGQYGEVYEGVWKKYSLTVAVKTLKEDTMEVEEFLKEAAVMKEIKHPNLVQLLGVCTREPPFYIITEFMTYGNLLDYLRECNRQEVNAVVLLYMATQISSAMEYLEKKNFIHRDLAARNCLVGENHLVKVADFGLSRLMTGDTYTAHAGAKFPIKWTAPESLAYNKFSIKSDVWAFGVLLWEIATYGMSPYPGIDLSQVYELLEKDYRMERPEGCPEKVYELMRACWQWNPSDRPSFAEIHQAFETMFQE
The experiment in a line: Abl kinase (SEQ ID NO:1) assay, pyruvate kinase/lactate dehydrogenase coupled. Particulars: 2 h preincubation, ATP 500 μM; read-out: Biochemical IC50, Abl Enzyme Assay. How it is done: Abl Kinase (SEQ ID NO:1) Assay
Activity of Abl kinase (SEQ ID NO: 1) was determined by following the production of ADP from the kinase reaction through coupling with the pyruvate kinase/lactate dehydrogenase system (e.g., Schindler, et al. Science (2000) 289, 1938-1942). In this assay, the oxidation of NADH (thus the decrease at A340 nm) was continuously monitored spectrophometrically. The reaction mixture (100 μl) contained Abl kinase (1 nM. Abl from deCode Genetics), peptide substrate (EAIYAAPFAKKK, 0.2 mM), MgCl2 (10 mM), pyruvate kinase (4 units), lactate dehydrogenase (0.7 units), phosphoenol pyruvate (1 mM), and NADH (0.28 mM) in 90 mM Tris buffer containing 0.2% octyl-glucoside and 3.5% DMSO, pH 7.5. Test compounds were incubated with Abl (SEQ ID NO:1) and other reaction reagents at 30° C. for 2 h before ATP (500 μM) was added to start the reaction. The absorption at 340 nm was monitored continuously for 2 hours at 30° C. on Polarstar Optima plate reader (BMG). The reaction rate was calculated using the 1.0 to 2.0 h time frame. Percent inhibition was obtained by comparison of reaction rate with that of a control (i.e. with no test compound). IC50 values were calculated from a series of percent inhibition values determined at a range of inhibitor concentrations using software routines as implemented in the GraphPad Prism software package.

Turning to `Cn1cc(-c2cc(Oc3ccc(NC(=O)Nc4noc5ccccc45)c(F)c3)ccn2)cn1` [Example 24, 1-(benzo[d]isoxazol-3-yl)-3-(2-fluoro-4-(2-(1-methyl-1H-pyrazol-4-yl)pyridin-4-yloxy)phenyl)urea], the GI50 in assay [1] was < 100 nM; in assay [2] it was < 100000 nM. The pIC50 (as a rule, the negative decadic logarithm of the IC50, by convention in mol/L) is > 5.00 in assay [3], > 7.00 in assay [4] and > 7.00 in assay [5].
